Results as given in the SangsterLogP compilation.

Compound	logP
CC(C)C1NC(=O)NC1=O (configuration not stated)	-0.36
CC1NC(=O)NC1=O (configuration not stated)	-0.95
O=C1CNC(=O)N1	-1.53
O=C1CNC(=O)N1Cc1ccccc1	0.82
CCC1(c2ccccc2)NC(=O)N(C)C1=O (configuration not stated)	1.69
CN1CC(=O)N(c2ccccc2)C1=O	0.14
CC(C)CC1NC(=O)NC1=O (configuration not stated)	0.35

Further lines, results first:

logP	Compound
1.61	CCN1C(=O)NC(Cc2ccccc2)C1=O (configuration not stated)
2.46	O=C1NC(=O)C(Cc2ccccc2)(Cc2ccccc2)N1
2.27	O=C1NC(Cc2ccccc2)C(=O)N1c1ccccc1 (configuration not stated)
2.28	CN1C(=O)NC(c2ccccc2)(c2ccccc2)C1=O
2.84	O=C1NC(Cc2ccccc2)C(=O)N1Cc1ccccc1 (configuration not stated)
